Source: ChEMBL document CHEMBL1201862, “PubChem BioAssay data set” (2004)
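These data come from cells grown in 96-well plates and exposed to compound for 48 hours at five concentrations. Abbreviation: GI50, concentration required for 50% inhibition of growth.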 The source made the active and inactive calls. Cut-off read from the data, not from the text of the source: active = GI50 up to about 1.1 µM and inactive = higher.

Columns and labels:
Assay in all cases: growth of human tumour cells (NCI), 48 h
HCC 2998 = tested on: HCC 2998
HCT-15 = tested on: HCT-15
HL-60 = tested on: HL-60
HOP-92 = tested on: HOP-92
IGROV-1 = tested on: IGROV-1
NCI-H226 = tested on: NCI-H226
NCI-H23 = tested on: NCI-H23
OVCAR-4 = tested on: OVCAR-4
OVCAR-8 = tested on: OVCAR-8
SF-268 = tested on: SF-268
SF-539 = tested on: SF-539
SK-OV-3 = tested on: SK-OV-3
SNB-19 = tested on: SNB-19
SR = tested on: SR
UACC-62 = tested on: UACC-62
UO-31 = tested on: UO-31
CAKI-1 = tested on: CAKI-1
OVCAR-3 = tested on: OVCAR-3
TK-10 = tested on: TK-10
A498 = tested on: A498

Row | Compound | GI50 (HCC 2998) | GI50 (HCT-15) [µM] | GI50 (HL-60) | GI50 (HOP-92) | GI50 (IGROV-1) | GI50 (NCI-H226) | GI50 (NCI-H23) | GI50 (OVCAR-4) | GI50 (OVCAR-8) | GI50 (SF-268) | GI50 (SF-539) | GI50 (SK-OV-3) | GI50 (SNB-19) | GI50 (SR) | GI50 (UACC-62) | GI50 (UO-31) | GI50 (CAKI-1) | GI50 (OVCAR-3) | GI50 (TK-10) | GI50 (A498)
1 | N/N=c1\c2ccccc2c2ccc3c4ccccc4/c(=N\N)c3c12 | > 100 µM (inactive) | > 100 | > 100 µM (inactive) | > 100 µM (inactive) | > 100 µM (inactive) | > 100 µM (inactive) | > 100 µM (inactive) | > 100 µM (inactive) | > 100 µM (inactive) | > 100 µM (inactive) | > 100 µM (inactive) | > 100 µM (inactive) | > 100 µM (inactive) | 25.7 µM (inactive) | > 100 µM (inactive) | > 100 µM (inactive) |  |  |  | 
2 | CC[C@@H]1ON(C)[C@H]2CN(C)C(=O)[C@@H]12 | > 100 µM (inactive) | > 100 | > 100 µM (inactive) | > 100 µM (inactive) | > 100 µM (inactive) | > 100 µM (inactive) | > 100 µM (inactive) | > 100 µM (inactive) | > 100 µM (inactive) |  |  | > 100 µM (inactive) | > 100 µM (inactive) | > 100 µM (inactive) |  | > 100 µM (inactive) | > 100 µM (inactive) | > 100 µM (inactive) | > 100 µM (inactive) | 
3 | CC(=O)OCc1nnn2c1C(OC(C)=O)CC2 (stereo unspecified) | > 100 µM (inactive) | > 100 |  | > 100 µM (inactive) | > 100 µM (inactive) | > 100 µM (inactive) | > 100 µM (inactive) | > 100 µM (inactive) | > 100 µM (inactive) |  | > 100 µM (inactive) | > 100 µM (inactive) | > 100 µM (inactive) | > 100 µM (inactive) | > 100 µM (inactive) | > 100 µM (inactive) | > 100 µM (inactive) | > 100 µM (inactive) | > 100 µM (inactive) | 
4 | O/N=C/c1ncccc1C1OCCO1 |  | > 100 | > 100 µM (inactive) | > 100 µM (inactive) | > 100 µM (inactive) | > 100 µM (inactive) | > 100 µM (inactive) | > 100 µM (inactive) | > 100 µM (inactive) | > 100 µM (inactive) | > 100 µM (inactive) | > 100 µM (inactive) | > 100 µM (inactive) | > 100 µM (inactive) | > 100 µM (inactive) | > 100 µM (inactive) | > 100 µM (inactive) | > 100 µM (inactive) | > 100 µM (inactive) | 
5 | C/C(=N/O)c1cccc(Nc2nc3ccccc3c3[nH]c4ccccc4c23)c1 |  | 2.36 | 3.08 µM (inactive) | 2.51 µM (inactive) | 3.19 µM (inactive) | 4.8 µM (inactive) | 3.08 µM (inactive) | 2.33 µM (inactive) | 2.65 µM (inactive) | 1.87 µM (inactive) | 5.74 µM (inactive) | 5.98 µM (inactive) | 4.08 µM (inactive) | 1.15 µM (inactive) | 2.28 µM (inactive) | 2.88 µM (inactive) | 2.75 µM (inactive) | 2.22 µM (inactive) | 4.6 µM (inactive) | 
6 | CCn1cnnc1-c1nsc2ccccc12 | > 100 µM (inactive) | > 100 | > 100 µM (inactive) | 45.3 µM (inactive) | > 100 µM (inactive) |  | > 100 µM (inactive) | > 100 µM (inactive) | > 100 µM (inactive) | > 100 µM (inactive) | > 100 µM (inactive) |  | > 100 µM (inactive) | > 100 µM (inactive) | > 100 µM (inactive) | > 100 µM (inactive) |  | 65.9 µM (inactive) | > 100 µM (inactive) | 
7 | Nc1c(-c2ccccc2[N+](=O)[O-])nc2ccccn12 | > 100 µM (inactive) | > 100 | > 100 µM (inactive) | > 100 µM (inactive) | > 100 µM (inactive) | > 100 µM (inactive) | > 100 µM (inactive) |  | > 100 µM (inactive) | > 100 µM (inactive) |  | > 100 µM (inactive) |  | > 100 µM (inactive) | > 100 µM (inactive) | > 100 µM (inactive) |  | > 100 µM (inactive) | > 100 µM (inactive) | 
8 | O=C1NCCCC12CCCNC2=O | > 100 µM (inactive) | > 100 | > 100 µM (inactive) |  | > 100 µM (inactive) | > 100 µM (inactive) | > 100 µM (inactive) |  | > 100 µM (inactive) | > 100 µM (inactive) | > 100 µM (inactive) | > 100 µM (inactive) | > 100 µM (inactive) | > 100 µM (inactive) |  | > 100 µM (inactive) |  | > 100 µM (inactive) |  | 
9 | CC(C)CCCC(C)[C@H]1CC[C@H]2[C@@H]3CC[C@H]4C[C@@H](CCC=C(c5cc(Cl)c(O)c(C(=O)O)c5)c5cc(Cl)c(O)c(C(=O)O)c5)CC[C@]4(C)[C@H]3CC[C@]12C (stereo partly specified) | > 50 µM (inactive) | 36.1 | > 50 µM (inactive) | > 50 µM (inactive) | > 50 µM (inactive) | > 50 µM (inactive) | > 50 µM (inactive) | > 50 µM (inactive) | > 50 µM (inactive) | > 50 µM (inactive) | > 50 µM (inactive) | > 50 µM (inactive) | > 50 µM (inactive) |  | > 50 µM (inactive) | 6.03 µM (inactive) | > 50 µM (inactive) | > 50 µM (inactive) | > 50 µM (inactive) | > 50 µM (inactive)
10 | Cn1c2ccccc2c2c3c(c4c5ccccc5n(C)c4c21)C(=O)c1ccccc1C3=O | 96.8 µM (inactive) | > 100 | 21 µM (inactive) | 53.3 µM (inactive) | 31 µM (inactive) | > 100 µM (inactive) | 18.6 µM (inactive) | 58.3 µM (inactive) | 40.1 µM (inactive) |  | 16.6 µM (inactive) | 48.9 µM (inactive) | 22.8 µM (inactive) | 18.7 µM (inactive) | 25.9 µM (inactive) | 67.3 µM (inactive) | 33.9 µM (inactive) | 41.8 µM (inactive) | 24.3 µM (inactive) | 
11 | Oc1cc(O)c2ccc(-c3ccc(O)c(O)c3)[o+]c2c1 | > 100 µM (inactive) | > 100 | > 100 µM (inactive) | > 100 µM (inactive) | > 100 µM (inactive) | > 100 µM (inactive) | > 100 µM (inactive) | > 100 µM (inactive) | > 100 µM (inactive) | > 100 µM (inactive) | > 100 µM (inactive) | > 100 µM (inactive) | > 100 µM (inactive) |  | > 100 µM (inactive) | > 100 µM (inactive) | > 100 µM (inactive) | > 100 µM (inactive) | > 100 µM (inactive) | > 100 µM (inactive)
12 | COC(=O)C1=CC2OC1(C)CCC2=O (stereo unspecified) | > 100 µM (inactive) | 67.9 | 26.9 µM (inactive) |  | > 100 µM (inactive) | > 100 µM (inactive) | 99.3 µM (inactive) | > 100 µM (inactive) | 50.1 µM (inactive) | > 100 µM (inactive) | > 100 µM (inactive) | > 100 µM (inactive) | > 100 µM (inactive) | 45.9 µM (inactive) | > 10 µM (inactive) | > 100 µM (inactive) | 63 µM (inactive) | > 100 µM (inactive) | > 100 µM (inactive) | 
13 | O=C1CC(C(COCc2ccccc2)OCc2ccccc2)CC(=O)N1 (stereo unspecified) | > 100 µM (inactive) | > 100 | > 100 µM (inactive) | > 100 µM (inactive) | > 100 µM (inactive) | > 100 µM (inactive) | > 100 µM (inactive) |  | > 100 µM (inactive) | > 100 µM (inactive) | > 100 µM (inactive) |  | > 100 µM (inactive) | > 100 µM (inactive) |  | > 100 µM (inactive) | > 100 µM (inactive) | > 100 µM (inactive) | > 100 µM (inactive) | 
14 | S=C1C=C(c2ccccc2)Sc2ccccc2N1 |  | > 100 | 53.8 µM (inactive) |  | > 100 µM (inactive) | > 100 µM (inactive) | > 100 µM (inactive) | > 100 µM (inactive) | > 100 µM (inactive) | > 100 µM (inactive) |  | > 100 µM (inactive) | > 100 µM (inactive) | > 100 µM (inactive) | > 100 µM (inactive) | > 100 µM (inactive) | > 100 µM (inactive) | > 100 µM (inactive) | > 100 µM (inactive) | 
15 | c1ccc(C2N=C(c3ccccn3)C(c3ccccn3)=NC2c2ccccc2)cc1 (stereo unspecified) | > 100 µM (inactive) | > 100 | > 100 µM (inactive) | > 100 µM (inactive) | > 100 µM (inactive) | > 100 µM (inactive) | > 100 µM (inactive) | > 100 µM (inactive) | > 100 µM (inactive) | > 100 µM (inactive) | > 100 µM (inactive) | > 100 µM (inactive) | 19.1 µM (inactive) |  | > 100 µM (inactive) | > 100 µM (inactive) | > 100 µM (inactive) | > 100 µM (inactive) | > 100 µM (inactive) | > 100 µM (inactive)
16 | COc1cc(C2c3cc4c(cc3[C@@H](Nc3ccc(F)cc3)C3COC[C@H]23)OCO4)cc(OC)c1O (stereo partly specified) | 6.85 µM (inactive) | 2.48 | 0.533 µM (active) |  | 11.9 µM (inactive) |  |  | 11.7 µM (inactive) | 2.8 µM (inactive) | 3.85 µM (inactive) | 0.75 µM (active) | 4.98 µM (inactive) | 0.885 µM (active) | 0.543 µM (active) |  | 0.488 µM (active) |  |  | 5.9 µM (inactive) | 
17 | CC(C)(C1=NC(C(C)(C)C)CO1)C1=N[C@@H](C(C)(C)C)CO1 (stereo partly specified) | > 100 µM (inactive) | > 100 | > 100 µM (inactive) | > 100 µM (inactive) | > 100 µM (inactive) | > 100 µM (inactive) | > 100 µM (inactive) | > 100 µM (inactive) | > 100 µM (inactive) | > 100 µM (inactive) | > 100 µM (inactive) | > 100 µM (inactive) | > 100 µM (inactive) | > 100 µM (inactive) | > 100 µM (inactive) | > 100 µM (inactive) |  | > 100 µM (inactive) | > 100 µM (inactive) | 
